Laboratory results: PubChem BioAssay AID1996
Converted amounts (≈) assume the structure as drawn.

Settings: buffer; pH 7.4; 200.0 µM

Going from `CCOc1ccc(S(=O)(=O)N(C)CC(=O)NCc2ccccn2)cc1` to `CCOc1ccc(-c2nonc2NC(=O)c2ccco2)cc1`, the solubility kinetic falls from 50.2 µg/mL (≈ 138 µM) to 12.1 µg/mL (≈ 40.4 µM) (4.1-fold).

Going from `COC(=O)CCC(=O)Nc1cccc([N+](=O)[O-])c1` to `O=C(Nc1cccc(NC(=O)c2ccc([N+](=O)[O-])o2)c1)c1ccco1`, the solubility kinetic falls from greater than 37.8 µg/mL to 4.5 µg/mL (≈ 13.2 µM).

First: O=S(=O)(c1cccs1)N1CCN(c2ccccc2)CC1
Second: CS(=O)(=O)N(Cc1ccccc1Cl)c1ccc(C(=O)N2CCCC2)cc1
The solubility kinetic of the first is 40-fold lower: 1.4 µg/mL (≈ 4.54 µM) for the first, 55.7 µg/mL (≈ 142 µM) for the second.

`O=C(Nc1ccc(Cl)c(S(=O)(=O)N2CCOCC2)c1)C1CCCC1` and `Cc1ccc(S(=O)(=O)N2CCOCC2)cc1NC(=O)COC(=O)c1cncc(Br)c1` cannot be ordered by solubility kinetic: greater than 55.9 µg/mL for the first, greater than 74.8 µg/mL for the second.

Going from `Fc1ccc(NC(=S)N2CCc3ccccc3C2)c(F)c1` to `S=C(Nc1ccc(Cl)c(Cl)c1)N1CCN(c2ccccn2)CC1`, the solubility kinetic falls from 37.3 µg/mL (≈ 123 µM) to 0.9 µg/mL (≈ 2.45 µM) (41-fold).

`C#CCn1c(CCNC(=O)c2ccco2)nc2ccccc21` and `CC(CNC(=O)c1ccccc1Cl)NC(=O)c1ccccc1Cl` (stereo not given) cannot be ordered by solubility kinetic: greater than 44 µg/mL for the first, greater than 52.7 µg/mL for the second.

Compared with `Cl.O=c1cc[nH]c2c1ccc1c(=O)cc[nH]c12`, `Cc1ccc2c(c1)C(=O)C(=O)N2CC1COc2ccccc2O1` (stereo not given) is 1.8-fold lower in solubility kinetic: 34.6 µg/mL for the first, 19.5 µg/mL (≈ 63 µM) for the second.

First: COc1ccc2c(c1)[C@@]13CCC=C[C@H]1[C@@H](C2)NCC3.Cl
Second: COc1ccc(C(=O)Nc2cccc3c2CCCC3)c(OC)c1
The solubility kinetic of the first is higher: greater than 43.8 µg/mL for the first, less than 0.7 µg/mL for the second.

`CCOC(=O)c1cc(NC(=O)/C=C\C(=O)O)ccc1Cl` and `CC(=O)c1sc(C(C)(C)C)cc1NC(=O)c1ccccc1C(=O)O` cannot be ordered by solubility kinetic: greater than 44.7 µg/mL for the first, greater than 51.8 µg/mL for the second.

`N/C(=N\OC(=O)Nc1ccccc1)c1ccno1` and `Cc1ccc(CC(=O)O/N=C(\N)c2ccccn2)cc1` are within 1.5-fold of each other in solubility kinetic: 24.2 µg/mL (≈ 98.3 µM) for the first, 27.5 µg/mL (≈ 102 µM) for the second.

Compared with `CN(C(=O)CSc1nc2c(c(=O)[nH]1)CCC2)c1ccccc1`, `Cc1ccc(C2=NOC3(CC(=O)N(c4ccccc4)C3=O)C2)cc1` (stereo not given) is lower in solubility kinetic: greater than 47.3 µg/mL for the first, 45.2 µg/mL (≈ 141 µM) for the second.

`Nc1nc(Nc2cccc(Cl)c2)nc(NCc2ccco2)c1[N+](=O)[O-]` and `CCOc1nc(Nc2ccc(Cl)cc2)nc(OCC)n1` are within 1.5-fold of each other in solubility kinetic: 3 µg/mL (≈ 8.32 µM) for the first, 3.5 µg/mL (≈ 11.9 µM) for the second.

Going from `CC(Sc1nnc2ccccn12)C(=O)Nc1ccc(N2CCOCC2)cc1` (stereo not given) to `CCOc1ccc(C(=O)Nc2ccc(CN3CCOCC3)cc2)cc1Cl`, the solubility kinetic falls from greater than 57.5 µg/mL to 27.5 µg/mL (≈ 73.4 µM).

Compared with `COc1cc(OC)cc(C(=O)NC(c2ccccc2)c2ccccc2)c1`, `Cc1ccccc1OCC(=O)NC(C)c1ccccc1` (stereo not given) is higher in solubility kinetic: less than 0.7 µg/mL for the first, 39.8 µg/mL (≈ 148 µM) for the second.

First: O=C(Nc1ccc2c(c1)OCO2)C1CC(=O)N(c2cccc(Cl)c2)C1 (stereo not given)
Second: C[C@H](NS(=O)(=O)c1ccccc1F)C(=O)OCC(=O)Nc1ccc2c(c1)OCCO2
The solubility kinetic of the first is lower: 0.9 µg/mL (≈ 2.51 µM) for the first, greater than 65.8 µg/mL for the second.

Going from `Cc1ccc(NC(=O)c2cccnc2C(=O)O)nc1` to `CCOC(=O)Nc1cccnc1Sc1ccc(Cl)cc1`, the solubility kinetic falls from greater than 38.6 µg/mL to 35.1 µg/mL (≈ 114 µM).

Compared with `CCNC(=O)C12CCC(C)(C(=O)O1)C2(C)C` (stereo not given), `CCSc1nnc(NC(=O)CN2C(=O)NC3(CCCC3)C2=O)s1` is higher in solubility kinetic: 31.8 µg/mL (≈ 141 µM) for the first, greater than 53.3 µg/mL for the second.

Going from `Cc1noc(C)c1C(=O)OCC(=O)Nc1ncc(C(F)(F)F)cc1Cl` to `COc1cccc2c(Cl)c(CC=C(Cl)Cl)c(C)nc12`, the solubility kinetic falls from 16.8 µg/mL (≈ 44.5 µM) to less than 0.7 µg/mL.

Compared with `Cc1cnc(N2C(=O)c3ccc([N+](=O)[O-])cc3C2=O)s1`, `CC(C)(C)c1nc2ccc([N+](=O)[O-])cc2[nH]1` is higher in solubility kinetic: 28 µg/mL (≈ 96.8 µM) for the first, greater than 32.9 µg/mL for the second.

Going from `Cc1nc(SCC(=O)N2CCOCC2)c2c(C)c(C)sc2n1` to `COc1ccc(-c2cc(C(=O)OCC(=O)N3CCOCC3)c3ccccc3n2)cc1`, the solubility kinetic falls from 49.1 µg/mL (≈ 145 µM) to 26.3 µg/mL (≈ 64.7 µM) (1.9-fold).

First: Cc1cccc(NC(=O)c2cc(-c3ccccn3)nc3ccccc23)c1C
Second: O=C(O)c1cccc(-n2c(/C=C/c3ccccc3)nc3ccccc3c2=O)c1
The solubility kinetic of the first is lower: 3.5 µg/mL (≈ 9.9 µM) for the first, greater than 55.3 µg/mL for the second.

Going from `O=C(Oc1cccc(Cl)c1)N1CCOCC1` to `CCCCN(C)C1CCN(C(=S)Nc2cccc(OC)c2)CC1`, the solubility kinetic rises from 34.8 µg/mL (≈ 144 µM) to greater than 50.3 µg/mL.

Going from `COc1ccc(CCNC(=O)COC(=O)CCC(=O)c2ccc(F)cc2)cc1` to `O=C(O)c1ccc(NC(=O)c2cc3ccccc3o2)cc1`, the solubility kinetic rises from 15.9 µg/mL (≈ 41 µM) to greater than 42.2 µg/mL.

Compared with `CC1CCCC(C)N1C(=O)Cn1cnc2cc([N+](=O)[O-])ccc2c1=O` (stereo not given), `O=[N+]([O-])c1ccc(C2CCCC/C2=N/O)c([N+](=O)[O-])c1` (stereo not given) is lower in solubility kinetic: greater than 51.7 µg/mL for the first, 8.8 µg/mL (≈ 31.5 µM) for the second.

`Cc1ccc(NC(=O)C[n+]2ccccc2)cc1C.[Cl-]` and `CCOC(=O)CC(NC(=O)c1cccs1)c1ccc(C)cc1` (stereo not given) cannot be ordered by solubility kinetic: greater than 41.5 µg/mL for the first, greater than 47.6 µg/mL for the second.

`Cc1cc(C(=O)NC2CCC(C)CC2)c(C)o1` (stereo not given) and `CC1CCCC(NC(=O)C2COc3ccccc3O2)C1C` (stereo not given) are within 1.5-fold of each other in solubility kinetic: 12.6 µg/mL (≈ 53.5 µM) for the first, 17.2 µg/mL (≈ 59.4 µM) for the second.

`COc1ccccc1OCC(=O)N1CCCCCCC1` and `O=C(CCC(=O)Nc1ccccc1Cl)NN=C1CCCC1` cannot be ordered by solubility kinetic: greater than 41.6 µg/mL for the first, greater than 46.2 µg/mL for the second.

Compared with `Cc1ccc2c(c1)c1c3n2CCN(CC(N)=O)C3CCC1` (stereo not given), `Nc1cccc(Oc2ccc3c(c2)C(=O)N(CC2CCCO2)C3=O)c1` (stereo not given) is 24-fold higher in solubility kinetic: 1.7 µg/mL (≈ 6 µM) for the first, 41.4 µg/mL (≈ 122 µM) for the second.

Going from `CCOc1ccc(CN2C(=O)c3ccccc3C2=O)cc1C(=O)O` to `COC(=O)c1sccc1NC(=O)Nc1cc(OC)ccc1OC`, the solubility kinetic falls from greater than 48.8 µg/mL to 10.3 µg/mL (≈ 30.6 µM).

Compared with `CN(C)c1nc(N(C)C)nc(N(C#N)Cc2ccc(Cl)cc2)n1`, `CCCc1nnc(SCC(=O)NC2CCCCC2)n1CCOC` is higher in solubility kinetic: 0.3 µg/mL (≈ 0.904 µM) for the first, greater than 51.1 µg/mL for the second.
